Test results: patent US7858585B2, “Hydrogels and uses thereof” (University of Delaware, priority 2005, dated 2010)

How the values were obtained:
[1] = test system: C3H10t1/2 cells; assay: Live/Dead assay of encapsulated cells after shear thin delivery; assay type: cell-based; details: 0.5 wt % hydrogel, three hours after delivery
Method: Lastly, the effect of shear thin delivery on cell viability was assessed by performing a Live-Dead assay on cells that had been encapsulated into a 0.5 wt % HPL8 hydrogel and subsequently shear thin delivered to a LSCM well FIG. 33c. In this micrograph, cells contained within the interior of the gel are visualized by viewing from the top of the gel (along the z-axis, depth of field is 90 μm.). Three hours after the gel/cell construct had been shear-thin delivered, calcien AM and ethidium homodimer were added to the top of the gel, which freely diffuse through the gel network, staining live cells green and dead cells red, respectively. […] In fact, the limited degree of cell death observed in FIG. 33c is nearly identical to that of the control experiment where cells were encapsulated in HPL8 hydrogel but not shear thin delivered (FIG. 35).
C3H10t1/2 cell growth conditions are 90% DMEM supplemented with 25 mM HEPES, 10% FBS, 5 mM L-glutamine, and 50 μg/mL Gentamicin at 37° C., 5% CO2. For confocal micrographs of hydrogels impregnated with pre-labeled cells, a suspension of 1.5 e6 cells/mL were incubated in a solution of 5 μM cell tracker green in DMEM for 45 min. […] Viability of encapsulated cells in 0.5 wt % hydrogels (before and after shear thinning) was assessed via a Live/Dead assay at 3 hr after encapsulation. […]

[2] = CD kinetics of β-sheet formation ([θ]216) after addition of DMEM; assay type: physicochemical; details: 0.5 wt %, pH 7.4, 37° C.
Method: (§1) To a vial containing 1 mg of peptide, 100 μL of 25 mM HEPES, pH 7.4 was added resulting in a soluble 1 wt % peptide solution. To this solution, an equal volume of DMEM supplemented with 25 mM HEPES, pH 7.4 was added to initiate self-assembly, resulting in a 0.5 wt % hydrogel. All hydrogels were prepared by this method unless otherwise stated.
CD kinetic spectra were collected on a Jasco J-810 spectropolarimeter employing 0.1 mm quartz water-jacketed cell. Peptide samples were prepared as stated above, transferred to the cell at 37° C. The ellipiticity in millidegrees were monitored at 216 nm as a function of time. Following the kinetic measurement, a wavelength scan was recorded at 37° C. using a 2 nm step size. The concentrations of MAX1 and HPL8 stock solutions were determined by absorbance (λ220=15750 cm-1.M-1) after dilution with water. Mean residue ellipticity [θ]=(θobs/10.1.c)/r, where θobs is the measured ellipticity in millidegrees, l is the length of the cell (cm), c is the concentration (M) and r is the number of residues.

[3] = test system: C3H10t1/2 mesenchymal stem cells; assay: Encapsulation of mesenchymal stem cells in hydrogel, LSCM imaging of cell distribution; assay type: cell-based
Source text: For example, FIG. 29 contains a Laser Scanning Confocal Microscopy (LSCM) cross-sectional view of C3H10t1/2 cells encapsulated within a 0.5 wt % MAX1 hydrogel. In this micrograph, cells contained within the interior of the gel are visualized from the side of the gel (along the y-axis, depth of field is 920 μm); the top and bottom of the image is the top and bottom of the gel, respectively. Cells are encapsulated by first dissolving 1.0 wt % MAX1 in buffer at pH 7.4. To this solution, an equal volume (50 μL) of DMEM cell culture medium containing 250,000 cells is added. The salt within the DMEM electrostatically screens the lysine side chain charges resulting in peptide folding and consequent self-assembly. This simple one-to-one addition of solutions affords gels impregnated with cells. However, it is clear in FIG. 29 that the hydrogelation kinetics of MAX1 are not fast enough to entrap the cells homogeneously since a majority of the cells sediment to the bottom of the gel sample well.
C3H10t1/2 cell growth conditions are 90% DMEM supplemented with 25 mM HEPES, 10% FBS, 5 mM L-glutamine, and 50 μg/mL Gentamicin at 37° C., 5% CO2. […] Viability of encapsulated cells in 0.5 wt % hydrogels (before and after shear thinning) was assessed via a Live/Dead assay at 3 hr after encapsulation. […]

[4] = Oscillatory rheology of 0.5 wt % MAX1 and HPL8 hydrogels in DMEM, pH 7.4, 37° C.; assay type: physicochemical
Method: as §1
Oscillatory rheology experiments were performed on a TA Instruments rheometer (AR 2000) with a 25 mm diameter stainless steel parallel plate geometry with a gap height of 0.5 mm. All measurements were acquired at 37° C. For dynamic time sweeps (DTS) the hydrogels were prepared as stated above and quickly transferred to the rheometer where the storage modulus (G′) was monitored as a function of time, frequency=6 rad. sec-1 and strain=0.2%. For the shear thinning experiments, a DTS was preformed for 10 min at which time 1000% stain was applied for 30 seconds to shear thin the material. After which time, the strain was decreased to 0.2% and G′ monitored as a function of time. Dynamic frequency, dynamic strain and dynamic time sweep measurements measuring both G′ and the loss modulus (G″) are provided in FIG. 36.

In the case of VKVKVKVKV^DPPTKVEVKVKV-NH2 [HPL8], the “cell viability after shear thin delivery” value [1] is reported as “majority of the cells remain viable”, the “time to completely fold and self-assemble affording gel” value [2] is reported as “under a minute” and the “distribution of cells encapsulated in gel” value ([3]; 0.5 wt % gel, 250K cells in DMEM, pH 7.4, 37° C.) is reported as “homogeneous distribution of cells”. The “distribution of cells after shear thinning via syringe” value ([3]; 0.5 wt % gel/cell construct formed in a syringe) was “still retain the homogeneous cell distribution”, the “G′ within the first 40 seconds” value ([4]; pH 7.4, 37° C.) was > 100 Pa and the “G′ at five minutes” value ([4]; phase I initial gelation) was 450 Pa. For the same substance, the “G′ within a minute” value ([4]; phase I initial gelation) was > 100 Pa.
